According to PubChem BioAssay (NCI):
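Interpolation was linear, between the two tested concentrations surrounding the appropriate level; five concentrations were tested over 48 hours in 96-well plates. GI50: concentration for 50% inhibition of growth. TGI marks complete inhibition of growth.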

What follows are compounds tested on HL-60(TB) leukemia (assay: growth of human tumour cells (NCI), 48 h).

Row | Compound | GI50 | TGI
1 | O=C1c2cccnc2-c2nc(-c3ccc(Cl)cc3)cc3c2c1nc1ccccc13 | 37.6 µM | > 100 µM
2 | Clc1ccc(-c2cc3nc4ccccc4nc3o2)cc1 |  | > 100 µM

The compounds below were run on TK-10 renal (assay: growth of human tumour cells (NCI), 48 h).

Row | Compound | TGI | GI50
3 | Cc1cc2nc(C=C(C(F)(F)F)C(F)(F)F)oc2cc1C | 5.16 µM | 
4 | CCc1nc(N)nc(N)c1-c1ccc(NC)c([N+](=O)[O-])c1 | > 100 µM | 
5 | CCOP(=O)(OCC)C(c1ccc(F)cc1)N(C(=O)NC(F)(F)F)c1cccc(C(F)(F)F)c1 (stereo unspecified) | > 100 µM | 
6 | O=C1c2cccnc2-c2nc(-c3ccc(Cl)cc3)cc3c2c1nc1ccccc13 | > 100 µM | 24.6 µM
7 | COc1c(C)cc2c(c1O)C1C3[C@H]4SC[C@@]5(NCCC6=C5NC5C=CC=CC65)C(=O)OCC(c5c6c(c(C)c(OC(C)=O)c54)OCO6)N3[C@@H](O)C(C2)N1C (stereo partly specified) | 12.8 µM | 
8 | Clc1ccc(-c2cc3nc4ccccc4nc3o2)cc1 | > 100 µM | 

Each compound was assayed on SW-620 colon (assay: growth of human tumour cells (NCI), 48 h).

Row | Compound | TGI | GI50
9 | Cc1cc2nc(C=C(C(F)(F)F)C(F)(F)F)oc2cc1C | 3.42 µM | 
10 | CCc1nc(N)nc(N)c1-c1ccc(NC)c([N+](=O)[O-])c1 | > 100 µM | 
11 | CCOP(=O)(OCC)C(c1ccc(F)cc1)N(C(=O)NC(F)(F)F)c1cccc(C(F)(F)F)c1 (stereo unspecified) | > 100 µM | 
12 | O=C1c2cccnc2-c2nc(-c3ccc(Cl)cc3)cc3c2c1nc1ccccc13 | > 100 µM | 28.6 µM
13 | Clc1ccc(-c2cc3nc4ccccc4nc3o2)cc1 | > 100 µM | 

The compounds below were run on SNB-75 CNS (assay: growth of human tumour cells (NCI), 48 h).

Row | Compound | TGI | GI50
14 | Cc1cc2nc(C=C(C(F)(F)F)C(F)(F)F)oc2cc1C | > 10 µM | 
15 | CCc1nc(N)nc(N)c1-c1ccc(NC)c([N+](=O)[O-])c1 | > 100 µM | 
16 | CCOP(=O)(OCC)C(c1ccc(F)cc1)N(C(=O)NC(F)(F)F)c1cccc(C(F)(F)F)c1 (stereo unspecified) | > 100 µM | 
17 | O=C1c2cccnc2-c2nc(-c3ccc(Cl)cc3)cc3c2c1nc1ccccc13 | > 100 µM | 57.9 µM
18 | COc1c(C)cc2c(c1O)C1C3[C@H]4SC[C@@]5(NCCC6=C5NC5C=CC=CC65)C(=O)OCC(c5c6c(c(C)c(OC(C)=O)c54)OCO6)N3[C@@H](O)C(C2)N1C (stereo partly specified) | < 0.01 µM | 
19 | Clc1ccc(-c2cc3nc4ccccc4nc3o2)cc1 | 48.3 µM | 

These compounds were tested on SN12C renal (assay: growth of human tumour cells (NCI), 48 h).

Row | Compound | TGI | GI50
20 | Cc1cc2nc(C=C(C(F)(F)F)C(F)(F)F)oc2cc1C | 5.1 µM | 
21 | CCc1nc(N)nc(N)c1-c1ccc(NC)c([N+](=O)[O-])c1 | > 100 µM | 
22 | CCOP(=O)(OCC)C(c1ccc(F)cc1)N(C(=O)NC(F)(F)F)c1cccc(C(F)(F)F)c1 (stereo unspecified) | > 100 µM | 
23 | O=C1c2cccnc2-c2nc(-c3ccc(Cl)cc3)cc3c2c1nc1ccccc13 | > 100 µM | 24 µM
24 | COc1c(C)cc2c(c1O)C1C3[C@H]4SC[C@@]5(NCCC6=C5NC5C=CC=CC65)C(=O)OCC(c5c6c(c(C)c(OC(C)=O)c54)OCO6)N3[C@@H](O)C(C2)N1C (stereo partly specified) | 1.3 µM | 

What follows are compounds tested on T-47D breast (assay: growth of human tumour cells (NCI), 48 h).

Row | Compound | TGI | GI50
25 | Cc1cc2nc(C=C(C(F)(F)F)C(F)(F)F)oc2cc1C | 8.53 µM | 
26 | CCc1nc(N)nc(N)c1-c1ccc(NC)c([N+](=O)[O-])c1 | > 100 µM | 
27 | CCOP(=O)(OCC)C(c1ccc(F)cc1)N(C(=O)NC(F)(F)F)c1cccc(C(F)(F)F)c1 (stereo unspecified) | > 100 µM | 
28 | O=C1c2cccnc2-c2nc(-c3ccc(Cl)cc3)cc3c2c1nc1ccccc13 | > 100 µM | > 100 µM
29 | Clc1ccc(-c2cc3nc4ccccc4nc3o2)cc1 | > 100 µM | 

These compounds were tested on OVCAR-3 ovarian (assay: growth of human tumour cells (NCI), 48 h).

Row | Compound | TGI | GI50
30 | Cc1cc2nc(C=C(C(F)(F)F)C(F)(F)F)oc2cc1C | 4.35 µM | 
31 | CCc1nc(N)nc(N)c1-c1ccc(NC)c([N+](=O)[O-])c1 | > 100 µM | 
32 | CCOP(=O)(OCC)C(c1ccc(F)cc1)N(C(=O)NC(F)(F)F)c1cccc(C(F)(F)F)c1 (stereo unspecified) | > 100 µM | 
33 | O=C1c2cccnc2-c2nc(-c3ccc(Cl)cc3)cc3c2c1nc1ccccc13 | 75 µM | 24 µM
34 | Clc1ccc(-c2cc3nc4ccccc4nc3o2)cc1 | > 100 µM | 

The compounds below were run on SK-MEL-2 melanoma (assay: growth of human tumour cells (NCI), 48 h).

Row | Compound | TGI | GI50
35 | Cc1cc2nc(C=C(C(F)(F)F)C(F)(F)F)oc2cc1C | > 10 µM | 
36 | CCc1nc(N)nc(N)c1-c1ccc(NC)c([N+](=O)[O-])c1 | > 92.5 µM | 
37 | CCOP(=O)(OCC)C(c1ccc(F)cc1)N(C(=O)NC(F)(F)F)c1cccc(C(F)(F)F)c1 (stereo unspecified) | > 100 µM | 
38 | O=C1c2cccnc2-c2nc(-c3ccc(Cl)cc3)cc3c2c1nc1ccccc13 | > 100 µM | 76.5 µM
39 | COc1c(C)cc2c(c1O)C1C3[C@H]4SC[C@@]5(NCCC6=C5NC5C=CC=CC65)C(=O)OCC(c5c6c(c(C)c(OC(C)=O)c54)OCO6)N3[C@@H](O)C(C2)N1C (stereo partly specified) | < 0.01 µM | 
40 | Clc1ccc(-c2cc3nc4ccccc4nc3o2)cc1 | > 100 µM | 

These compounds were tested on OVCAR-4 ovarian (assay: growth of human tumour cells (NCI), 48 h).

Row | Compound | TGI | GI50
41 | Cc1cc2nc(C=C(C(F)(F)F)C(F)(F)F)oc2cc1C | 7.78 µM | 
42 | CCc1nc(N)nc(N)c1-c1ccc(NC)c([N+](=O)[O-])c1 | > 100 µM | 
43 | CCOP(=O)(OCC)C(c1ccc(F)cc1)N(C(=O)NC(F)(F)F)c1cccc(C(F)(F)F)c1 (stereo unspecified) | > 100 µM | 
44 | O=C1c2cccnc2-c2nc(-c3ccc(Cl)cc3)cc3c2c1nc1ccccc13 | > 100 µM | 43.6 µM
45 | Clc1ccc(-c2cc3nc4ccccc4nc3o2)cc1 | > 100 µM | 

The compounds below were run on EKVX NSCLC (assay: growth of human tumour cells (NCI), 48 h).

Row | Compound | TGI | GI50
46 | Cc1cc2nc(C=C(C(F)(F)F)C(F)(F)F)oc2cc1C | 8.05 µM | 
47 | CCc1nc(N)nc(N)c1-c1ccc(NC)c([N+](=O)[O-])c1 | > 100 µM | 
48 | CCOP(=O)(OCC)C(c1ccc(F)cc1)N(C(=O)NC(F)(F)F)c1cccc(C(F)(F)F)c1 (stereo unspecified) | > 100 µM | 
49 | O=C1c2cccnc2-c2nc(-c3ccc(Cl)cc3)cc3c2c1nc1ccccc13 | > 100 µM | > 100 µM
50 | COc1c(C)cc2c(c1O)C1C3[C@H]4SC[C@@]5(NCCC6=C5NC5C=CC=CC65)C(=O)OCC(c5c6c(c(C)c(OC(C)=O)c54)OCO6)N3[C@@H](O)C(C2)N1C (stereo partly specified) | 0.24 µM | 
51 | Clc1ccc(-c2cc3nc4ccccc4nc3o2)cc1 | > 100 µM | 

The compounds below were run on KM20L2 colon (assay: growth of human tumour cells (NCI), 48 h).

Row | Compound | TGI
52 | COc1c(C)cc2c(c1O)C1C3[C@H]4SC[C@@]5(NCCC6=C5NC5C=CC=CC65)C(=O)OCC(c5c6c(c(C)c(OC(C)=O)c54)OCO6)N3[C@@H](O)C(C2)N1C (stereo partly specified) | 1.45 µM

What follows are compounds tested on OVCAR-5 ovarian (assay: growth of human tumour cells (NCI), 48 h).

Row | Compound | TGI | GI50
53 | Cc1cc2nc(C=C(C(F)(F)F)C(F)(F)F)oc2cc1C | 7.03 µM | 
54 | CCc1nc(N)nc(N)c1-c1ccc(NC)c([N+](=O)[O-])c1 | > 100 µM | 
55 | CCOP(=O)(OCC)C(c1ccc(F)cc1)N(C(=O)NC(F)(F)F)c1cccc(C(F)(F)F)c1 (stereo unspecified) | > 100 µM | 
56 | O=C1c2cccnc2-c2nc(-c3ccc(Cl)cc3)cc3c2c1nc1ccccc13 | > 100 µM | > 100 µM
57 | Clc1ccc(-c2cc3nc4ccccc4nc3o2)cc1 | > 100 µM | 

The compounds below were run on HCT-15 colon (assay: growth of human tumour cells (NCI), 48 h).

Row | Compound | TGI | GI50
58 | Cc1cc2nc(C=C(C(F)(F)F)C(F)(F)F)oc2cc1C | 9.62 µM | 
59 | CCc1nc(N)nc(N)c1-c1ccc(NC)c([N+](=O)[O-])c1 | > 100 µM | 
60 | CCOP(=O)(OCC)C(c1ccc(F)cc1)N(C(=O)NC(F)(F)F)c1cccc(C(F)(F)F)c1 (stereo unspecified) | > 100 µM | 
61 | O=C1c2cccnc2-c2nc(-c3ccc(Cl)cc3)cc3c2c1nc1ccccc13 | > 100 µM | 23.9 µM
62 | Clc1ccc(-c2cc3nc4ccccc4nc3o2)cc1 | > 100 µM | 

What follows are compounds tested on PC-3 prostate (assay: growth of human tumour cells (NCI), 48 h).

Row | Compound | TGI | GI50
63 | Cc1cc2nc(C=C(C(F)(F)F)C(F)(F)F)oc2cc1C | 5.08 µM | 
64 | CCc1nc(N)nc(N)c1-c1ccc(NC)c([N+](=O)[O-])c1 | > 100 µM | 
65 | CCOP(=O)(OCC)C(c1ccc(F)cc1)N(C(=O)NC(F)(F)F)c1cccc(C(F)(F)F)c1 (stereo unspecified) | > 100 µM | 
66 | O=C1c2cccnc2-c2nc(-c3ccc(Cl)cc3)cc3c2c1nc1ccccc13 | > 100 µM | 47 µM
67 | Clc1ccc(-c2cc3nc4ccccc4nc3o2)cc1 | > 100 µM | 

What follows are compounds tested on UACC-62 melanoma (assay: growth of human tumour cells (NCI), 48 h).

Row | Compound | TGI | GI50
68 | Cc1cc2nc(C=C(C(F)(F)F)C(F)(F)F)oc2cc1C | > 10 µM | 
69 | CCc1nc(N)nc(N)c1-c1ccc(NC)c([N+](=O)[O-])c1 | > 100 µM | 
70 | CCOP(=O)(OCC)C(c1ccc(F)cc1)N(C(=O)NC(F)(F)F)c1cccc(C(F)(F)F)c1 (stereo unspecified) | > 100 µM | 
71 | O=C1c2cccnc2-c2nc(-c3ccc(Cl)cc3)cc3c2c1nc1ccccc13 | > 100 µM | 76 µM
72 | Clc1ccc(-c2cc3nc4ccccc4nc3o2)cc1 | > 100 µM | 

The compounds below were run on NCI-H226 lung (assay: growth of human tumour cells (NCI), 48 h).

Row | Compound | TGI | GI50
73 | CCc1nc(N)nc(N)c1-c1ccc(NC)c([N+](=O)[O-])c1 | > 100 µM | 
74 | CCOP(=O)(OCC)C(c1ccc(F)cc1)N(C(=O)NC(F)(F)F)c1cccc(C(F)(F)F)c1 (stereo unspecified) | > 100 µM | 
75 | O=C1c2cccnc2-c2nc(-c3ccc(Cl)cc3)cc3c2c1nc1ccccc13 | > 100 µM | 49.5 µM
76 | COc1c(C)cc2c(c1O)C1C3[C@H]4SC[C@@]5(NCCC6=C5NC5C=CC=CC65)C(=O)OCC(c5c6c(c(C)c(OC(C)=O)c54)OCO6)N3[C@@H](O)C(C2)N1C (stereo partly specified) | 0.0859 µM | 
